Molecular target: USP30 (Homo sapiens (Human), UniProt Q70CQ3)
Experiment: USP30 biochemical FP or FI IC50 assay
Conditions: read-out: IC50 range
Procedure, shortened: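 Human USP30 preincubated 30 min at room temperature with compound (8-point series, 100 µM top final) in Tris pH 7.5, Tween 20, BSA, 5 mM β-mercaptoethanol, in duplicate. FP format: 50 nM TAMRA-peptide–isopeptide-ubiquitin substrate, ex 540/em 590. FI format: 100 nM ubiquitin-rhodamine 110, ex 487/em 535. Both read at 0 and after 2 h at room temperature.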

Chain of USP30 (Q70CQ3 57-517): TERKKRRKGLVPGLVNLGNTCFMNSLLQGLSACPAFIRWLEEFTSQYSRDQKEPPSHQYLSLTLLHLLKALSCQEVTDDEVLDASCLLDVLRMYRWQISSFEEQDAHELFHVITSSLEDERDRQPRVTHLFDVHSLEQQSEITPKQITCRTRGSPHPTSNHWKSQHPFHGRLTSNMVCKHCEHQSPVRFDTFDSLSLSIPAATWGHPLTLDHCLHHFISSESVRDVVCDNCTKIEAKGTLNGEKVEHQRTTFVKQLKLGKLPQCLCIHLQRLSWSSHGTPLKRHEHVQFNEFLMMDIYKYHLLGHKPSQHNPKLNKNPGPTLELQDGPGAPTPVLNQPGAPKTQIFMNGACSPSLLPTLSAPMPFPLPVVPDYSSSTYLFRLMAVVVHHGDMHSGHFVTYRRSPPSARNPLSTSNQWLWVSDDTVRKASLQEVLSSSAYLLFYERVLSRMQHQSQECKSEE

| SMILES | IC50 |
| --- | --- |
| N#CN1CC[C@@H](NC(=O)c2cc(F)c(N3CCCC3)cc2F)C1 [Example 145, (R)-N-(1-cyanopyrrolidin-3-yl)-2,5-difluoro-4-(pyrrolidin-1-yl)benzamide] | < 0.1 µM |
| CO[C@@H]1CCN(c2ccc(C(=O)N[C@@H]3CCN(C#N)C3)c(F)c2)C1 [Example 146, N-((R)-1-cyanopyrrolidin-3-yl)-2-fluoro-4-((R)-3-methoxypyrrolidin-1-yl)benzamide] | 0.1 to 1 µM |
| COc1cc(C(=O)N[C@@H]2CCN(C#N)C2)ccc1Nc1ncccn1 [Example 147, (R)-N-(1-cyanopyrrolidin-3-yl)-3-methoxy-4-(pyrimidin-2-ylamino)benzamide] | 0.1 to 1 µM |
| COc1cc(C(=O)N[C@@H]2CCN(C#N)C2)ccc1Nc1nccc(C)n1 [Example 148, (R)-N-(1-cyanopyrrolidin-3-yl)-3-methoxy-4-((4-methylpyrimidin-2-yl)amino)benzamide] | 0.1 to 1 µM |
| COc1ccnc(Nc2ccc(C(=O)N[C@@H]3CCN(C#N)C3)c(F)c2)n1 [Example 149, (R)-N-(1-cyanopyrrolidin-3-yl)-2-fluoro-4-((4-methoxypyrimidin-2-yl)amino)benzamide] | < 0.1 µM |
| Cc1cc(C(=O)N[C@@H]2CCN(C#N)C2)nn1C(C)c1ccccc1 (stereo partly drawn) [Example 150, N-((R)-1-cyanopyrrolidin-3-yl)-5-methyl-1-(1-phenylethyl)-1H-pyrazole-3-carboxamide] | 0.1 to 1 µM |
| Cc1cc(C(=O)N[C@@H]2CCN(C#N)C2)nn1Cc1ccccn1 [Example 151, (R)-N-(1-cyanopyrrolidin-3-yl)-5-methyl-1-(pyridin-2-ylmethyl)-1H-pyrazole-3-carboxamide] | 0.1 to 1 µM |
| N#CN1CC[C@@H](NC(=O)c2ccc(-c3ccnnc3)cc2F)C1 [Example 152, (R)-N-(1-cyanopyrrolidin-3-yl)-2-fluoro-4-(pyridazin-4-yl)benzamide] | 0.1 to 1 µM |
| CC(C)Cn1nc(C(=O)N[C@@H]2CCN(C#N)C2)c2ccc(-c3cnn(C)c3)cc21 [Example 153, (R)-N-(1-cyanopyrrolidin-3-yl)-1-isobutyl-6-(1-methyl-1H-pyrazol-4-yl)-1H-indazole-3-carboxamide] | 0.1 to 1 µM |
| Cc1noc(C)c1-c1ccc2c(C(=O)N[C@@H]3CCN(C#N)C3)nn(CC(C)C)c2c1 [Example 154, (R)-N-(1-cyanopyrrolidin-3-yl)-6-(3,5-dimethylisoxazol-4-yl)-1-isobutyl-1H-indazole-3-carboxamide] | < 0.1 µM |
| Cc1noc(C)c1-c1ccc2c(C(=O)N[C@@H]3CCN(C#N)C3)nn(CC3CC3)c2c1 [Example 155, (R)-N-(1-cyanopyrrolidin-3-yl)-1-(cyclopropylmethyl)-6-(3,5-dimethylisoxazol-4-yl)-1H-indazole-3-carboxamide] | < 0.1 µM |
| CN(C(=O)c1cn2cc(-c3cnn(C)c3)ccc2n1)[C@@H]1CCN(C#N)C1 [Example 156, (R)-N-(1-cyanopyrrolidin-3-yl)-N-methyl-6-(1-methyl-1H-pyrazol-4-yl)imidazo[, 2-a]pyridine-2-carboxamide] | 0.1 to 1 µM |
| CN(C(=O)c1cc2cc(-c3cnn(C)c3)ccc2[nH]1)[C@@H]1CCN(C#N)C1 [Example 157, (R)-N-(1-cyanopyrrolidin-3-yl)-N-methyl-5-(1-methyl-1H-pyrazol-4-yl)-1H-indole-2-carboxamide] | < 0.1 µM |
| Cc1noc(C)c1-c1ccc2[nH]c(C(=O)N(C)[C@@H]3CCN(C#N)C3)nc2c1 [Example 158, (R)-N-(1-cyanopyrrolidin-3-yl)-6-(3,5-dimethylisoxazol-4-yl)-N-methyl-1H-benzo[d]imidazole-2-carboxamide] | 0.1 to 1 µM |
| Cn1cc(-c2ccn3c(C(=O)N[C@@H]4CCN(C#N)C4)cnc3c2)cn1 [Example 159, (R)-N-(1-cyanopyrrolidin-3-yl)-7-(1-methyl-1H-pyrazol-4-yl)imidazo[1,2-a]pyridine-3-carboxamide] | 0.1 to 1 µM |
| N#Cc1cccc(-c2ccn3c(C(=O)N[C@@H]4CCN(C#N)C4)cnc3c2)c1 [Example 160, (R)-7-(3-cyanophenyl)-N-(1-cyanopyrrolidin-3-yl)imidazo[1,2-a]pyridine-3-carboxamide] | < 0.1 µM |
| Cc1cc(-c2ccn3c(C(=O)N(C)[C@@H]4CCN(C#N)C4)cnc3c2)ccn1 [Example 161, (R)-N-(1-cyanopyrrolidin-3-yl)-N-methyl-7-(2-methylpyridin-4-yl)imidazo[1,2-a]pyridine-3-carboxamide] | 0.1 to 1 µM |
| Cc1ccc(-c2ccn3c(C(=O)N(C)[C@@H]4CCN(C#N)C4)cnc3c2)cn1 [Example 162, (R)-N-(1-cyanopyrrolidin-3-yl)-N-methyl-7-(6-methylpyridin-3-yl)imidazo[1,2-a]pyridine-3-carboxamide] | 0.1 to 1 µM |
| Cc1nn(C)cc1-c1ccn2c(C(=O)N(C)[C@@H]3CCN(C#N)C3)cnc2c1 [Example 163, (R)-N-(1-cyanopyrrolidin-3-yl)-7-(1,3-dimethyl-1H-pyrazol-4-yl)-N-methylimidazo[1,2-a]pyridine-3-carboxamide] | 0.1 to 1 µM |
| Cc1cc(-c2ccn3c(C(=O)N(C)[C@@H]4CCN(C#N)C4)cnc3c2)cc(C)n1 [Example 164, (R)-N-(1-cyanopyrrolidin-3-yl)-7-(2,6-dimethylpyridin-4-yl)-N-methylimidazo[1,2-a]pyridine-3-carboxamide] | 0.1 to 1 µM |

| SMILES | IC50 |
| --- | --- |
| CCN(C(=O)c1cnc2cc(-c3ccnc(C)c3)ccn12)[C@@H]1CCN(C#N)C1 [Example 165, (R)-N-(1-cyanopyrrolidin-3-yl)-N-ethyl-7-(2-methylpyridin-4-yl)imidazo[1,2-a]pyridine-3-carboxamide] | 0.1 to 1 µM |
| N#CN1CC[C@@H](NC(=O)c2cnc3cc(N4CCOCC4)ccn23)C1 [Example 166, (R)-N-(1-cyanopyrrolidin-3-yl)-7-morpholinoimidazo[1,2-a]pyridine-3-carboxamide] | 0.1 to 1 µM |
| N#Cc1cccc(-c2ccc3nc(C(=O)N[C@@H]4CCN(C#N)C4)c(F)n3c2)c1 [Example 167, (R)-6-(3-cyanophenyl)-N-(1-cyanopyrrolidin-3-yl)-3-fluoroimidazo[1,2-a]pyridine-2-carboxamide] | < 0.1 µM |
| CCn1cc(-c2ccc3nc(C(=O)N[C@@H]4CCN(C#N)C4)c(F)n3c2)cn1 [Example 169, (R)-N-(1-cyanopyrrolidin-3-yl)-6-(1-ethyl-1H-pyrazol-4-yl)-3-fluoroimidazo[1,2-a]pyridine-2-carboxamide] | 0.1 to 1 µM |
| Cc1nn(C)cc1-c1ccc2nc(C(=O)N[C@@H]3CCN(C#N)C3)c(F)n2c1 [Example 170, (R)-N-(1-cyanopyrrolidin-3-yl)-6-(1,3-dimethyl-1H-pyrazol-4-yl)-3-fluoroimidazo[1,2-a]pyridine-2-carboxamide] | 0.1 to 1 µM |
| N#CN1CC[C@@H](NC(=O)c2ccc(-c3ccn4nccc4n3)cc2F)C1 [Example 172, (R)-N-(1-cyanopyrrolidin-3-yl)-2-fluoro-4-(pyrazolo[1,5-a]pyrimidin-5-yl)benzamide] | < 0.1 µM |
| N#CN1CC[C@@H](NC(=O)c2ccc(-c3ccc(F)cc3)cn2)C1 [Example 173, (R)-N-(1-cyanopyrrolidin-3-yl)-5-(4-fluorophenyl)picolinamide] | < 0.1 µM |
| Cc1nn(C)cc1-c1ccc(C(=O)N[C@@H]2CCN(C#N)C2)nc1 [Example 179, (R)-N-(1-cyanopyrrolidin-3-yl)-5-(1,3-dimethyl-1H-pyrazol-4-yl)picolinamide] | 0.1 to 1 µM |
| Cc1nc(-c2ccc(C(=O)N[C@@H]3CCN(C#N)C3)nc2)cc(C(F)(F)F)n1 [Example 180, (R)-N-(1-cyanopyrrolidin-3-yl)-5-(2-methyl-6-(trifluoromethyl)pyrimidin-4-yl)picolinamide] | 0.1 to 1 µM |
| Cc1cc(-c2ccc(C(=O)N[C@@H]3CCN(C#N)C3)c(F)c2)nc(C)n1 [Example 181, (R)-N-(1-cyanopyrrolidin-3-yl)-4-(2,6-dimethylpyrimidin-4-yl)-2-fluorobenzamide] | < 0.1 µM |
| Cc1ncc(F)c(-c2ccc(C(=O)N[C@@H]3CCN(C#N)C3)c(F)c2)n1 [Example 182, (R)-N-(1-cyanopyrrolidin-3-yl)-2-fluoro-4-(5-fluoro-2-methylpyrimidin-4-yl)benzamide] | < 0.1 µM |
| N#CN1CC[C@@H](NC(=O)c2ccc(-c3ccnc(C(F)(F)F)n3)cc2F)C1 [Example 183, (R)-N-(1-cyanopyrrolidin-3-yl)-2-fluoro-4-(2-(trifluoromethyl)pyrimidin-4-yl)benzamide] | 0.1 to 1 µM |
| Cc1nc2nccc-2c(-c2ccc(C(=O)N[C@@H]3CCN(C#N)C3)c(F)c2)[nH]1 [Example 184, (R)-N-(1-cyanopyrrolidin-3-yl)-2-fluoro-4-(2-methyl-3H-pyrrolo[2,3-d]pyrimidin-4-yl)benzamide] | < 0.1 µM |
| N#CN1CC[C@@H](NC(=O)c2ccc(-c3cnc4cnccn34)cc2F)C1 [Example 185, (R)-N-(1-cyanopyrrolidin-3-yl)-2-fluoro-4-(imidazo[1,2-a]pyrazin-3-yl)benzamide] | < 0.1 µM |
| N#CN1CC[C@@H](NC(=O)c2ncc(-c3ccn4nccc4n3)cc2F)C1 [Example 186, (R)-N-(1-cyanopyrrolidin-3-yl)-3-fluoro-5-(pyrazolo[1,5-a]pyrimidin-5-yl)picolinamide] | 0.1 to 1 µM |
| N#CN1CC[C@@H](NC(=O)c2ncc(-c3ccc4nccn4c3)cc2F)C1 [Example 187, (R)-N-(1-cyanopyrrolidin-3-yl)-3-fluoro-5-(imidazo[1,2-a]pyridin-6-yl)picolinamide] | 0.1 to 1 µM |
| COC1(c2ccccc2)CN(C(=O)N[C@@H]2CCN(C#N)C2)C1 [Example 188, (R)-N-(1-cyanopyrrolidin-3-yl)-3-methoxy-3-phenylazetidine-1-carboxamide] | 0.1 to 1 µM |
| CN(C(=O)N1CC(c2ccccc2)C1)[C@@H]1CCN(C#N)C1 [Example 189, (R)-N-(1-cyanopyrrolidin-3-yl)-N-methyl-3-phenylazetidine-1-carboxamide] | 0.1 to 1 µM |
| COc1ccc(C2CN(C(=O)N[C@@H]3CCN(C#N)C3)C2)cc1 [Example 190, (R)-N-(1-cyanopyrrolidin-3-yl)-3-(4-methoxyphenyl)azetidine-1-carboxamide] | < 0.1 µM |
